For the experiment, the target named is ROCK2 (human) (UniProt O75116). Kind of experiment: Assessment of ROCK2 Kinase Activity.
ROCK2 (human), sequence (O75116 whole entry, looked up): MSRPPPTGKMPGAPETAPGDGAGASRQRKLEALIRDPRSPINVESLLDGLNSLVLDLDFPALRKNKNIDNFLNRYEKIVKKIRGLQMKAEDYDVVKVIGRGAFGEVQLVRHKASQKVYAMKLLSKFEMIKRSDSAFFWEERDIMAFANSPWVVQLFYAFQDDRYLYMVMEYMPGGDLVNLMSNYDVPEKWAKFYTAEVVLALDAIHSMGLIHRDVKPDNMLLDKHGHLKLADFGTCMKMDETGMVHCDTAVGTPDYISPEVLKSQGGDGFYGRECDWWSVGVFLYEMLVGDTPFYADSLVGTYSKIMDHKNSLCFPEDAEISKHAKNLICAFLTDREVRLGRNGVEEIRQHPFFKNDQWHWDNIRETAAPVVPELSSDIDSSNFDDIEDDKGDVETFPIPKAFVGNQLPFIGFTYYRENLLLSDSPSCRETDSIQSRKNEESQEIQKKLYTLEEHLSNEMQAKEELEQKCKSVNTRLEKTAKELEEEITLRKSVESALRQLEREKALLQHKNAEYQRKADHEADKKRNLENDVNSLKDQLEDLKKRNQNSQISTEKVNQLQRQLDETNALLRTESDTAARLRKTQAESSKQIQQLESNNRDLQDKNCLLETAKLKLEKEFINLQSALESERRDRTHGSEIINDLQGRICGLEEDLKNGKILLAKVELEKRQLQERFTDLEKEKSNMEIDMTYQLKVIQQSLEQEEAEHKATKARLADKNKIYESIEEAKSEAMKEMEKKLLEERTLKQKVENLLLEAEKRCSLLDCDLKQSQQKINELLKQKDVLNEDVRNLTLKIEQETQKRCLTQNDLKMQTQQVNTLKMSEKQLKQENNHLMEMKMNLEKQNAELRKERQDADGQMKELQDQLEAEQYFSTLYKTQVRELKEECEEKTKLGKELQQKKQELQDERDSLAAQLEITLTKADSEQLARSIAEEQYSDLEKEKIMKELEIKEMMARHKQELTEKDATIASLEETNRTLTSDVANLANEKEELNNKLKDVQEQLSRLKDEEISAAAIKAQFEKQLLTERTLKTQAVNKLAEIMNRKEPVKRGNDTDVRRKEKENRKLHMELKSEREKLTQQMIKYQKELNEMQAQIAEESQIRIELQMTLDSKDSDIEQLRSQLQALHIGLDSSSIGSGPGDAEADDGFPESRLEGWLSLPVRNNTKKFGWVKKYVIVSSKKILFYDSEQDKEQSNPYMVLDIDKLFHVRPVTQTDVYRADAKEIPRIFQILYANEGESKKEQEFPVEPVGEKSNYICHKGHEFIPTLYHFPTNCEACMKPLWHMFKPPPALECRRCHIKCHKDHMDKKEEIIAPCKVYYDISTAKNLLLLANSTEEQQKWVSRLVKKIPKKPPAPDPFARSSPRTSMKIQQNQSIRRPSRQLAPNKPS
In general, IC50 refers to the midpoint of a concentration-inhibition curve. High values mean lower potency, low ones higher potency. Turning to `CCN(Cc1cccc(OC)c1)C(=O)Nc1ccc(-c2cn[nH]c2)cc1OCCN1CCCC1`, the 50% inhibitory concentration (IC50) was < 1 nM.
As for `COc1cccc(CNC(=O)Nc2ccc(-c3ncnc4[nH]ccc34)cc2)c1`, the figure is 188 nM; as for `COc1cccc(CNC(=O)Nc2ccc(-c3cn[nH]c3)cc2Cl)c1`, < 1 nM.
`COc1cccc(CNC(=O)Nc2ccc(-c3cn[nH]c3)cc2F)c1`: the IC50 was < 1 nM.
For `COc1cccc(CNC(=O)Nc2ccc(-c3ccnc(N)c3)cc2)c1` the value was 44 nM.
In the case of `COc1cccc(CNC(=O)Nc2ccc(-c3cn[nH]c3)cc2N(C)CCN(C)C)c1`, the IC50 was < 1 nM.
For `COc1cccc(CNC(=O)Nc2ccc(-c3cn[nH]c3)cc2OCCN2CCCC2)c1` the value was < 1 nM.
`Nc1cccc(CNC(=O)Nc2ccc(-c3cn[nH]c3)cc2)c1` registered a concentration for half-maximal inhibition (IC50) of 3 nM.
The compound `COc1cccc(CNC(=O)Nc2ccc(-c3cn[nH]c3)cc2)c1` came in with an IC50 of 2 nM.
Consider `COc1cccc(CN(C)C(=O)Nc2ccc(-c3cn[nH]c3)cc2OCCN(C)C)c1`, for which the IC50 was < 1 nM.
For `COc1ccccc1CNC(=O)Nc1ccc(-c2cn[nH]c2)cc1` the value was 26 nM; for `O=C(NCc1cccc(Cl)c1)Nc1ccc(-c2cn[nH]c2)cc1`, 17 nM; for `COc1cccc(CN(C)C(=O)Nc2ccc(-c3cn[nH]c3)cc2OCCN2CCCC2)c1`, < 1 nM.
As for `CCN(Cc1cccc(OC)c1)C(=O)Nc1ccc(-c2cn[nH]c2)cc1OCCN(C)C`, the figure is 3 nM.
`CCN(Cc1cccc(OC)c1)C(=O)Nc1ccc(-c2cn[nH]c2)cc1N(C)CCN(C)C` yielded a concentration for half-maximal inhibition (IC50) of 6 nM.
For `COc1ccc(CNC(=O)Nc2ccc(-c3cn[nH]c3)cc2)cc1` the value was 2750 nM.
The compound `COc1cccc(CNC(=O)Nc2ccc(-c3c[nH]nc3C)cc2)c1` showed an IC50 of 2 nM.
As for `COc1cccc(CNC(=O)Nc2ccc(-c3cn[nH]c3)cc2N(C)C)c1`, the figure is < 1 nM.
`COc1cccc(CNC(=O)Nc2ccc(-c3ccncc3)cc2)c1`: the concentration for half-maximal inhibition (IC50) worked out at 5 nM.
As for `O=C(NCc1ccccc1)Nc1ccc(-c2cn[nH]c2)cc1`, the figure is 18 nM.
For `O=C(NCc1cccc(F)c1)Nc1ccc(-c2cn[nH]c2)cc1` the value was 3 nM.
With `COc1cccc(CNC(=O)Nc2ccc(-c3cn[nH]c3)cc2OCCN(C)C)c1`, the IC50 was < 1 nM.
For `COc1cccc(CN(C)C(=O)Nc2ccc(-c3cn[nH]c3)cc2N(C)CCN(C)C)c1` the value was 8 nM; for `COc1cccc(CNC(=O)Nc2ccc(-c3ccnc(N)n3)cc2)c1`, 13 nM; for `COc1cccc(CNC(=O)Nc2ccc(-c3cn[nH]c3)cc2OC)c1`, < 1 nM.
As for `Cc1cccc(CNC(=O)Nc2ccc(-c3cn[nH]c3)cc2)c1`, the figure is 33 nM.

The values above are taken from the Kinase Knowledgebase extract (Sharma et al. 2016).
